pIC50: −log10 of the molar value. Several values for one entry are separate records, joined by “and”; a condition that tells them apart may be missing. Equal values may be shown once.
How the values were obtained:
adult male O. ochengi = assay: Adult male Onchocerca ochengi motility scoring in vitro; format: cell-based; conditions: Day 5, motility
[1] = Plasma gold levels (elemental gold analysis) in Brugia infected gerbils; format: in vivo, Mongolian gerbils (Meriones unguiculatus)
Experimental: Animal studies were performed under IACUC approval #AN085723–02 to test the efficacy of auranofin in vivo. Male Mongolian gerbils (Meriones unguiculatus, Charles River Laboratories International, Inc., Wilmington, MA) were injected intraperitoneally (IP) with 300 B. pahangi L3 (Filariatech, Inc., Athens, GA) and treated 3 months post-infection. Auranofin was dissolved in 100% ethanol at 4 mg/mL and mixed 1:1 with PBS. Vehicle doses consisted of the same mixture of ethanol and PBS but without auranofin. Doses (up to 200 μl) were given to gerbils orally at 5 mg/kg body weight, BID weekdays and SID weekends for a total of 48 doses over 4 weeks.
Two studies (Study 1 and Study 2) were conducted using the same protocols and the same dosing schedule except that in Study 1, two gerbils from the auranofin treatment group and two gerbils from the vehicle group were treated for 14 days and were necropsied 2 hours after their last dose (interim necropsy) to determine plasma gold levels (from auranofin). The remaining gerbils in Study 1 were treated for 28 days and were necropsied 11, 14, or 16 days after the end of dosing. In Study 2, all gerbils were treated for 28 days and were necropsied 16 days after the end of dosing. For both of these in vivo studies, worms were collected from the gerbil’s peritoneal cavity, counted, sexed and examined under a dissecting microscope. For each study a two-tailed Student’s T-test assuming equal variance was conducted using Microsoft Excel to determine the statistical significance of the difference in mean worm retrieval between the auranofin treated and vehicle treated groups. Gerbil blood was collected by cardiac puncture and plasma was sent to NMS Labs, Willow Grove, PA to determine plasma gold levels (elemental gold analysis) by graphite furnace atomic absorption spectroscopy.

[2] = tested on: endogenous Brugia thioredoxin reductase; assay: Thioredoxin reductase activity of lysates of female B. malayi treated in vitro; format: biochemical, Brugia malayi; conditions: 5 hours in vitro, female worms, soluble lysate
Experimental: (§1) Thioredoxin reductase activity of worm lysates was assayed using female B. malayi treated in vitro with either 0.3 μM, 0.1 μM, or 0.03 μM auranofin or 1% DMSO. After 5 hours of treatment, worm motility was measured using the Worminator, and then worms (24 in each group) were pooled, washed three times in PBS, and lysed by douncing in a glass homogenizer in assay buffer (Abcam Thioredoxin Reductase Assay kit, ab83463) with 1 mM PMSF. The crude lysates were centrifuged at 10,000 rcf for 15 minutes at 4°C to pellet insoluble material. The total protein concentrations of soluble lysates were measured using the Bradford assay. The soluble lysates were incubated for 20 minutes in assay buffer or assay buffer with a proprietary thioredoxin reductase specific inhibitor before adding a specific substrate, DTNB (5, 5′-dithiobis (2-nitrobenzoic) acid), and measuring activity at 20 second intervals for 40 minutes using the SpectraMax Plus Microplate Reader (Molecular Devices, Sunnyvale, CA) at λ = 412 nm. Lysates were tested in duplicate. TrxR activity was calculated based on the linear amount of TNB produced per minute per mg of total protein and adjusted for background activity from enzymes other than TrxR in the lysates.

[3] = tested on: endogenous Brugia thioredoxin reductase; assay: Thioredoxin reductase activity of lysates of worms recovered from gerbils treated in vivo
Experimental: as §1
Thioredoxin reductase activity was also analyzed in worms that were treated with auranofin or vehicle in vivo. […]

[4] = tested on: Recombinant B. malayi TrxR (rBmTrxR); assay: Recombinant B. malayi TrxR (rBmTrxR) DTNB inhibition assay; format: biochemical, Brugia malayi
Experimental: Recombinant 6-His-tagged B. malayi TrxR (rBmTrxR) was produced in E. coli BL21(DE3) in the presence of pSUABC [29] in LB medium supplemented with 20 μg/mL riboflavin under conditions for optimal selenoprotein expression. An overnight starter culture in LB with 50 μg/mL ampicillin and 34 μg/mL chloramphenicol was diluted (1:100) into in LB medium with the same antibiotics. When the culture reached an OD600 = 0.8, the medium was supplemented with 5 μM sodium selenite and 100 μg/mL L-cysteine. When the culture OD600 = 2, riboflavin (20 μg/mL) was added and protein expression was induced by the addition of isopropyl β-D-1-thiogalactopyranoside (50 μM). At this point the cultures were shifted to 24°C and incubated for 24 hr. Cells were collected by centrifugation, lysed by alternative freeze-thaw cycles, and resuspended in lysis buffer (50 mM potassium phosphate, pH 7.8, 500 mM NaCl, 30 mM imidazole, 1 mg/mL lysozyme, 1 mM phenylmethanesulfonylfluoride) supplemented with 100 μM flavin adenine dinucleotide. The sample was sonicated and cellular debris pelleted at 25,000 x g at 4°C for 25 min. The supernatant was collected and filtered through a 0.45 μm filter before purification by immobilized metal ion affinity chromatography using a His-Trap FF column (GE Healthcare). The column was washed with 10 column volumes binding buffer (50 mM potassium phosphate, pH 7.8, 500 mM NaCl, 30 mM imidazole) and then with 5 column volumes of buffer A (binding buffer with 100 mM imidazole). TrxR protein was eluted in 3 × 1 mL buffer B (binding buffer with 500 mM imidazole).Protein was concentrated (Amicon Ultra-4 10K) and purity was verified by SDS-PAGE and quantified by absorbance at 280 nm (ε = 69.76 mM^-1 cm^-1).
rBmTrxR activity was assayed in 0.1 M potassium phosphate (pH 7.2) with 10 mM EDTA and 25 nM rBmTrxR. rBmTxrR was pre-incubated for 20 min with NADPH (100 μM) and auranofin (ICN Pharmaceuticals, now Valeant Pharmaceuticals, Bridgewater, NJ) or aurothioglucose (USP Reference Standards, Rockville, MD) in DMSO in 100 μL, followed by addition of an equal volume of buffer with NADPH (200 μM) and DTNB (6 mM) with reaction progress monitored at λ = 412 nm for TNB production. The concentration of DMSO in all reactions was 3.5%.

[5] = tested on: cysteine protease cathepsin B; parameters: method as in PMID 16789749; conditions: cited from earlier work
glutathione peroxidase = biological target: glutathione peroxidase; parameters: method as in PMID 9685351; conditions: higher IC50; cited from earlier work

Q: With `CC[PH](CC)(CC)[Au][S][C@@H]1O[C@H](COC(C)=O)[C@@H](OC(C)=O)[C@H](OC(C)=O)[C@H]1OC(C)=O` [auranofin, 2,3,4,6-tetra-O-acetyl-1-thio-beta-D-glucopyranosato-S (triethylphosphine) gold] as the compound, how does the pIC50 (adult male O. ochengi) read?
A: 6.40

Q: And the “mean plasma gold level” value ([1]; Study 1, 16 days after the last dose)?
A: 701 nM

Q: What about the “mean plasma gold level” value ([1]; Study 2, 16 days after the last dose) of the same compound?
A: 609 nM

Q: And the Plasma gold levels ([1]; Study #1, 2 hours after last dose, interim necropsy after 14 days of treatment, 5 mg/kg oral, individual gerbils, 5 mg/kg)?
A: 1700 µg/L and 1000 µg/L

Q: What about the Plasma gold levels ([1]; Study #1, 11 days after last dose, 28 days of treatment) of the same compound?
A: 270 µg/L

Q: What about the Plasma gold levels ([1]; Study #1, 14 days after last dose, 28 days of treatment) of the same compound?
A: 340 µg/L

Q: What about the Plasma gold levels ([1]; Study #1, 16 days after last dose, individual gerbils, values less than 100 μg/L given as zero) of the same compound?
A: 170 µg/L and 190 µg/L and 160 µg/L

Q: What about the Concentration of gold ([1]; Study #1, plasma, 2 hours after last dose, interim necropsy after 14 days of treatment, individual gerbils) of the same compound?
A: 5080 nM and 8630 nM and 8631 nM and 5077 nM

Q: What about the Concentration of gold ([1]; Study #1, plasma, 11 days after last dose) of the same compound?
A: 1371 nM

Q: What about the Concentration of gold ([1]; Study #1, plasma, 14 days after last dose) of the same compound?
A: 1726 nM

Q: What about the Concentration of gold ([1]; Study #1, plasma, 16 days after last dose, individual gerbils, values less than 508 nM given as zero) of the same compound?
A: 863 nM and 965 nM and 812 nM

Q: What about the Plasma gold levels ([1]; Study #2, 16 days after last dose, individual gerbils, values less than 100 μg/L given as zero) of the same compound?
A: 130 µg/L and 190 µg/L and 160 µg/L

Q: And the Concentration of gold ([1]; Study #2, plasma, 16 days after last dose, individual gerbils, values less than 508 nM given as zero)?
A: 660 nM and 965 nM and 812 nM

Q: What about the “gold levels in blood” value ([1]; approximately 2 weeks after the last dose) of the same compound?
A: 0.66 µM

Q: What about the “Thioredoxin reductase activity, percent of DMSO control” value ([2]; 0.03 μM) of the same compound?
A: 69%

Q: What about the “Thioredoxin reductase activity, percent of DMSO control” value ([2]; 0.1 μM) of the same compound?
A: 33%

Q: What about the “Thioredoxin reductase activity, percent of DMSO control” value ([2]; 0.3 μM) of the same compound?
A: 15%

Q: And the “Thioredoxin reductase activity, percent of vehicle control” value ([3]; worms collected 16 days after the last dose from treated gerbils)?
A: 51%

Q: What about the “reduction of endogenous thioredoxin reductase activity vs vehicle” value ([3]; worms removed 16 days after the last dose from gerbils treated 28 days) of the same compound?
A: 49%

Q: And the “mode of inhibition of rBmTrxR” value [4]?
A: irreversibly inhibit rBmTrxR at a one-to-one molar ratio

Q: And the pIC50 ([4]; 25 nM rBmTrxR, 20 min pre-incubation with NADPH, DTNB substrate)?
A: 8.52

Q: And the pIC50 [5]?
A: ~3.60

Q: And the “IC50 relative to TrxR isolated from human placenta” value (glutathione peroxidase)?
A: about 1000 fold

— publication PMC4336141, “Repurposing Auranofin as a Lead Candidate for Treatment of Lymphatic Filariasis and Onchocerciasis” (PLoS Neglected Tropical Diseases, 2015)
